This assay addresses T1, non-glyc-HS2ST H142R (Gallus gallus, UniProt Q76KB1, H142R).
T1 construct: made in house; host or cells: E. coli Origami B (DE3)
T1 sequence (Q76KB1 69-356 H142R limits assumed): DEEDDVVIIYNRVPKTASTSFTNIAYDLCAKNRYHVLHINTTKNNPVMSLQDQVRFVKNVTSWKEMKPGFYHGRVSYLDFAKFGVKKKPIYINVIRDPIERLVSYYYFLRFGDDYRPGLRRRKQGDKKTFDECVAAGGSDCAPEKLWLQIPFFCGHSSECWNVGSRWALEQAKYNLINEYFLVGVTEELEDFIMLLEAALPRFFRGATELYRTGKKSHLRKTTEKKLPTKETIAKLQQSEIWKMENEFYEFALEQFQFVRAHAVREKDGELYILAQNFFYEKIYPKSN
The assay can be described thus: BLI equilibrium binding, non-glyc-HS2ST H142R. Also noted: species or system chicken. As to conditions: BLI saturation binding curves, n = 3, ± standard error of fit. The text has this: To assess whether the inhibitory compounds interact with the active site, point mutations were introduced in non-glyc-HS2ST (Fig. 4a). Four mutants of the catalytic residue (H142A/E/R/K) were created, along with a mutation of the residue that facilitates 2-O-sulfation of IdoA residues (R189A)[27]. Additionally, a negative control (NC) was generated containing multiple mutations of positively charged residues (R189A, R80E, and R184E) that reduced the net charge of each protein monomer by 5. The extent that the mutations affected affinity provided an indication that the ligand had been bound in the active site (Table 1 and Supplementary Fig. 1). While R189A markedly diminished the affinity for all compounds, the NC mutations reduced affinity to immeasurable levels. Removal of the catalytic side chain (H142A) enhanced the affinity of each compound, compared to the WT, by approximately 2–3-fold. Addition of a positive charge at this location (H142K/R) further enhanced the affinity for each compound, so much so that a KD value could be measured even for 2. The H142E mutation diminished the affinity of 5 by half compared to WT, but its effects were less significant for binding to 3 or 4.
The chicken HS2ST-Maltose Binding Protein (MBP) fusion protein was expressed and purified according to previous studies. The fusion protein was transformed into E. coli Origami B (DE3) cells, cultured at 37 °C until OD600 reached 0.5, then induced with isopropyl-β-D-thiogalactopyranoside and allowed to grow overnight at 20 °C. Cells were sonicated, followed by a two-step purification procedure. Whole-cell supernatant was passed through an amylose column with Tris buffer (25 mM Tris, 500 mM NaCl, pH 7.5). An elution buffer consisted of Tris Buffer with 40 mM Maltose. The amylose column eluent was concentrated and loaded on a Superdex 200 Increase 10/300 GL with PBS buffer (10 mM sodium phosphate, 150 mM NaCl, pH 7.8) to separate trimeric protein from aggregate and independent MBP (Supplementary Fig. 4). All reported mutations formed homotrimeric complexes according to the SEC profiles, including the negative control (NC = R189A/R80E/R184E). Protein concentration was assessed via UV at 280 nm (MW of trimer ~210 KDa, extinction coefficient ~119,000 M^−1 cm^−1 according to ExPASy ProtParam webtool[56]). The trimeric protein preparation was adjusted to 5% glycerol and stored at −20 °C until use. Additional non-glyc-HS2ST constructs were created with the Q5® Mutagenesis kit (New England Biolabs Inc.; cat. # E0554S) and sequenced at the Georgia Genomics Facility at the University of Georgia.
The Octet® RED96 system (FortéBio Inc.) was employed to detect the affinity of the enzymes for specific HS targets. […]

This is an account of results in article PMC6081452, “Downstream Products are Potent Inhibitors of the Heparan Sulfate 2-O-Sulfotransferase” (Scientific Reports, 2018).

With “GlcNS6S-GlcA-GlcNS3S6S-IdoA2S-GlcNS6S-GlcA~ [Compound 4]”, binding was put at a Kd of 10 ± 1 nM.

In the case of “GlcNS6S-GlcA-GlcNS6S-GlcA-GlcNS6S-GlcA~ [Compound 5]”, the Kd – broadly, the constant that tells how readily two partners part at equilibrium – amounted to 13 ± 1 nM. “GlcNS6S-GlcA-GlcNS6S-IdoA2S-GlcNS6S-GlcA~ [Compound 3]”: binding was characterised by a dissociation constant (Kd) of 12 ± 1 nM. As to “GlcNS-GlcA-GlcNS-IdoA2S-GlcNS-GlcA~ [Compound 2]”, the Kd came to 136 ± 20 nM.
